Reference: patent US4855320A, “5-arylalkyl-4-alkoxy-2(5H)-furanones, intermediates and processes for the preparation thereof and medicaments containing them” (Dr. Willmar Schwabe GmbH & Company, priority 1986, dated 1989)
Where two headings read alike, the source gives them in different places.

Experiments:
[1] = system: maximum electroshock spasm (MES) in male mice (NMRI); assay: MES test (maximum electroshock spasm), inhibition of the extensor spasm; format: in vivo; details: for responders at 100 mg/kg / ED50 / responders at 50 mg/kg: Mus musculus; for responders at 100 mg/kg / responders at 50 mg/kg: read-out: protective action after 1 hr. (MES test); for ED50: read-out: ED 50 in the MES test
rats = assay: Orientating toxicological investigations on rats; format: in vivo; details: up to an oral dosage of 1000 mg./kg.
[2] = Neurotoxicity observation (motility, muscle tonus, respiratory frequency, body temperature, general behaviour); design: species or system mice (NMRI); details: mouse, in vivo, po
Protocol: During the above-described experiments, the animals were observed during the whole of the experimental period (up to 4 hours) for signs of substance-caused changes of behaviour and neurotoxicity (motility, muscle tonus, respiratory frequency, body temperature and general behaviour).

[3] = po, 100 mg/kg p.o., mice, 1 hr., % of animals protected 100% against the extensor spasm
[4] = oral, mice, 1 hour after administration
[5] = read-out: Neurotoxic limiting dose in the mouse

COC1=CC(=O)O[C@H]1[C@H](O)c1ccccc1Cl (relative stereo) [Example 64, threo-5-(2-chlorophenylhydroxymethyl)-4-methoxy-2(5H)-furanone]
responders at 100 mg/kg [1, 3]: 100% | ED50 [1, 4]: 19.8 mg/kg | mortality of rats (rats): no mortality of the animals

COC1=CC(=O)O[C@H]1[C@H](O)c1ccccc1 (relative stereo) [Example 65, threo-4-methoxy-5-phenylhydroxymethyl-2(5H)-furanone]
responders at 100 mg/kg [1, 3]: 79% | ED50 [1, 4]: 69 mg/kg | mortality of rats (rats): no mortality of the animals

COC1=CC(=O)O[C@H]1[C@H](O)c1ccc(Cl)cc1Cl (relative stereo) [Example 79, threo-5-(2,4-dichlorophenylhydroxymethyl)-4-methoxy-2(5H)-furanone]
responders at 100 mg/kg [1, 3]: 60% | ED50 [1, 4]: 82.5 mg/kg | mortality of rats (rats): no mortality of the animals

COC1=CC(=O)O[C@H]1[C@H](O)c1cc(Cl)ccc1Cl (relative stereo) [Example 81, threo-5-(2,5-dichlorophenylhydroxymethyl)-4-methoxy-2(5H)-furanone]
responders at 100 mg/kg [1, 3]: 100% | ED50 [1, 4]: 19.5 mg/kg | mortality of rats (rats): no mortality of the animals

CCC1(C)CC(=O)NC1=O (stereo not shown) [Ethosuximide, reference compound]
responders at 100 mg/kg [1, 3]: 0% | ED50 [1, 4]: > 250 mg/kg | TD50 [2]: 500 mg/kg

NC(=O)N1c2ccccc2C=Cc2ccccc21 [carbamazepine, reference compound]
responders at 50 mg/kg ([1]; po, 50 mg/kg p.o., mice, 1 hr.): 100% | ED50 [1, 4]: 14.6 mg/kg | TD50 [2]: 100 mg/kg

O=C1NC(=O)C(c2ccccc2)(c2ccccc2)N1 [diphenylhydantoin, reference compound]
ED50 ([1]; 1 h, (4 h), mice): 9.1 mg/kg | responders at 50 mg/kg ([1]; po, 50 mg/kg p.o., mice, 1 hr.): 100% | TD50 [2]: 100 mg/kg

CCCC(C)C1(CC)C(=O)NC(=O)NC1=O (stereo not shown) [pentobarbital, reference compound]
ED50 ([1]; sc, 1 h): 35.2 mg/kg | TD50 [2, 5]: 60 mg/kg

CCC1(c2ccccc2)C(=O)NC(=O)NC1=O [phenobarbital, reference compound]
ED50 ([1]; po, 1 h): 19.2 mg/kg | responders at 100 mg/kg ([1]; po, 1 h): 100% | TD50 [2, 5]: 60 mg/kg

CCCC(CCC)C(=O)O [valproic acid, reference compound]
ED50 ([1]; ip, 1 h): 205 mg/kg | responders at 100 mg/kg ([1]; po, 1 h): 0% | TD50 [2, 5]: 350 mg/kg

threo-4-methoxy-5-(α-hydroxy-β-phenylethyl)-2(5H)-furanone [Example 104]
protective action after 1 hr. (MES test) ([1]; 100 mg/kg p.o., mice, 1 hr., % of animals protected 100% against the extensor spasm): 37.5%

threo-5-[1'-ethoxypropoxy-(2-chlorophenyl)-methyl]-4-methoxy-2-(5H)-furanone [Example 122]
protective action after 1 hr. (MES test) ([1]; 50 mg/kg p.o., mice, 1 hr.): 100%
